For data set [1] the following is noted: in vivo; cited from earlier work.
Data set [2] has as its target neuraminidase (R&D SYSTEM, 4858-NM) of recombinant rvH1N1 influenza A virus of 1918 Spanish flu virus (A/Bervig_Mission/1/18) (Influenza A virus, UniProt Q9IGQ6). Put plainly: biochemical. Details: species or system influenza A virus A/Bervig_Mission/1/18 (rvH1N1).
Data set [3] concerns influenza virus H9N2 (A/Chicken/Korea/MS96/96). Put plainly: microbe, parasite or virus in culture. The settings on record: H9N2, MDCK, in Gallus gallus, read-out: EC50, 50% antiviral concentration.
For data set [4] the test system is unchanged. Put plainly: microbe, parasite or virus in culture. As to conditions: H9N2, MDCK, in Gallus gallus, read-out: EC50, 50% antiviral concentration. This is another data set of the same source.
Data set [5] can be described thus: in vitro. The settings on record: dog, mdck.
Data set [6] in a line: in vitro. As to conditions: dog.
For data set [7], the target named is neuraminidase of recombinant rvH1N1 influenza A virus (A/Bervig_Mission/1/18) (Influenza A virus, UniProt Q9IGQ6). Briefly: biochemical.
Sequence of neuraminidase of recombinant rvH1N1 influenza A virus (A/Bervig_Mission/1/18) (Q9IGQ6 whole entry, looked up): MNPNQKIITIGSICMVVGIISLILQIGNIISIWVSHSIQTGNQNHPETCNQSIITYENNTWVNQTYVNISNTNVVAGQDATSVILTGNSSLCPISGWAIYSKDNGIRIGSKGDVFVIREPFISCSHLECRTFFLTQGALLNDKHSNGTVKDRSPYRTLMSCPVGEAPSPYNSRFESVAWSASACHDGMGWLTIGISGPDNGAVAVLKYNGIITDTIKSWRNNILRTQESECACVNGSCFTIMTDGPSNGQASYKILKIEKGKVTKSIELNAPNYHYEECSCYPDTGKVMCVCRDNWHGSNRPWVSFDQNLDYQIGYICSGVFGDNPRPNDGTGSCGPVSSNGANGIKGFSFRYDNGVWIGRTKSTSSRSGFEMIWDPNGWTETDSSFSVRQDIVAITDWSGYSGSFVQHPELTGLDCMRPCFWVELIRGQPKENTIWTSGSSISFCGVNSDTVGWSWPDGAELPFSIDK
Data set [8] concerns influenza virus H9N2 (A/Chicken/Korea/MS96/96). Put plainly: microbe, parasite or virus in culture. The settings on record: H9N2, MDCK, in Gallus gallus, read-out: EC50, 50% antiviral concentration. The source holds these as a separate data set.
The test system is the same in data set [9]. Briefly: microbe, parasite or virus in culture. As to conditions: H9N2, MDCK, in Gallus gallus, read-out: EC50, 50% antiviral concentration. The source holds these as a separate data set.
For data set [10] the test system is unchanged. Put plainly: in vitro. The settings on record: dog.
Data set [11] shares this test system. Briefly: in vitro. As to conditions: dog. The source holds these as a separate data set.
The conditions of data set [12]: in vivo; cited from earlier work. The source holds these as a separate data set.
Data set [13] has as its system influenza virus H9N2 (A/Chicken/Korea/MS96/96). The settings on record: read-out: EC50, 50% antiviral concentration.
In data set [14] the test system is Madin-Darby canine kidney (MDCK, ATCC CCL-34) cell.
Data set [15] has as its system influenza virus H9N2 (A/Chicken/Korea/MS96/96). As to conditions: read-out: EC50, 50% antiviral concentration. This is another data set of the same source.
Setting [16] is: read-out: Neuraminidase inhibitory activity (IC50) A/Bervig-Mission/1/18 (rvH1N1).

Like-named read-outs stand apart in the source and are kept apart here.

Sequence of neuraminidase (R&D SYSTEM, 4858-NM) of recombinant rvH1N1 influenza A virus of 1918 Spanish flu virus (A/Bervig_Mission/1/18) (Q9IGQ6 36-469 limits assumed): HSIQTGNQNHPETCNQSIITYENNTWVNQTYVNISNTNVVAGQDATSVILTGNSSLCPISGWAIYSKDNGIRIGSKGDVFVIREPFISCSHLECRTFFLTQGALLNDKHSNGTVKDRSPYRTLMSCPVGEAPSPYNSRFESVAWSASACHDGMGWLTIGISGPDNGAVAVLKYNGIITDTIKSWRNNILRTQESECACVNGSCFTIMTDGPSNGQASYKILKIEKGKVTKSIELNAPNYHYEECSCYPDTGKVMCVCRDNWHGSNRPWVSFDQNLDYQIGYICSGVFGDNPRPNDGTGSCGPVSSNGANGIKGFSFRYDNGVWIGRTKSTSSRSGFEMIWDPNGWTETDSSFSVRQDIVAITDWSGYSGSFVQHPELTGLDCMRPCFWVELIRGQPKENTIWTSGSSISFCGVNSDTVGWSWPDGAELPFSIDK

Regarding `NC12CC3CC(CC(C3)C1)C2` [Amatadine], the side effects result in data set [1] is “severe side effects occur in the nervous system and stomach”.

Regarding `O=C(/C=C(O)/C=C/c1ccc(O)cc1)/C=C/c1ccc(O)cc1` [Bisdemethoxycurcumin], the IC50 in data set [2] came to 6 µM. Also, the EC50 in data set [3] is 182 µM; in [4], greater than 200 µM. In “in vitro [5]”, this molecule had a CC50 greater than 200 µM.

Take `COc1cc(/C=C/C(=O)/C=C(O)/C=C/c2ccc(O)c(OC)c2)ccc1O` [Curcumin]: the CC50 in the data set “in vitro [6]” stood at 94.1 µM. Moreover, the IC50 in [7] is 3 µM.

Consider `COc1cc(/C=C/C(=O)/C=C(O)/C=C/c2ccc(O)cc2)ccc1O` [Demethoxycurcumin], for which the IC50 in data set [2] is 3 µM. Moreover, in “in vitro [5]”, the CC50 was determined as 97 µM.

Turning to `CCOC(=O)C1=C[C@@H](OC(CC)CC)[C@H](NC(C)=O)[C@@H](N)C1` [Oseltamivir], the side effects entry in data set [1] is “severe vomiting”.

Take `CC(N)C12CC3CC(CC(C3)C1)C2` (centres unmarked) [Rimatadine]: the side effects result in data set [1] was “severe side effects occur in the nervous system and stomach”.

`CCOC(=O)C1=C[C@@H](OC(CC)CC)[C@H](NC(C)=O)[C@@H](N)C1` [Tamiflu, reference compound]: the EC50 in data set [8] and in data set [9] was less than 1 µM in each case. In the data set “in vitro [6]”, this molecule yielded a CC50 greater than 200 µM. Also, the selectivity ratio in data set [10] and in data set [11] was greater than 200 each time.

As to `CC(=O)N[C@H]1[C@H]([C@H](O)[C@H](O)CO)OC(C(=O)O)=C[C@@H]1N=C(N)N` [Zanamivir], the “release from the kidney” value in [12] is reported as “quick release from the kidney”.

In the case of Bisdemethoxycurcumin, the EC50 was 182 µM in data set [13] and greater than 200 µM in [15]. Further, the CC50 in data set [14] was greater than 200 µM. The IC50 in data set [7] (setting [16]) is 6 µM.

Demethoxycurcumin: in data set [14], the CC50 was 97 µM. Also, in data set [7] (setting [16]), the IC50 turned out to be 3 µM.
